Test results from the NIST ThermoML archive (doi:10.1021/je060108f).

Columns and labels:
[1] = wn = mass fraction of the nth substance listed; conditions: 101 kPa, Liquid
[2] = 101 kPa, Liquid

OCCC1CCCCN1 (stereo not given) [2-(2-hydroxyethyl)piperidine] + O
[1]
Conditions | mass density [kg/m3] | viscosity [mPa·s]
288 K, w1 = 0.05 | 1001.8 | 1.364
288 K, w1 = 0.1 | 1004.7 | 1.775
288 K, w1 = 0.15 | 1005 | 2.313
288 K, w1 = 0.2 | 1011.1 | 2.935
288 K, w1 = 0.25 | 1014.5 | 3.921
288 K, w1 = 0.3 | 1017.3 | 5.218
293 K, w1 = 0.05 | 1000.1 | 1.298
293 K, w1 = 0.1 | 1002.3 | 1.655
293 K, w1 = 0.15 | 1003.2 | 2.097
293 K, w1 = 0.2 | 1008.3 | 2.696
293 K, w1 = 0.25 | 1012.5 | 3.506
293 K, w1 = 0.3 | 1014.9 | 4.697
298 K, w1 = 0.05 | 998.9 | 1.116
298 K, w1 = 0.1 | 1001.6 | 1.423
298 K, w1 = 0.15 | 1002.4 | 1.762
298 K, w1 = 0.2 | 1005.9 | 2.289
298 K, w1 = 0.25 | 1010.1 | 2.968
298 K, w1 = 0.3 | 1012.7 | 3.858
303 K, w1 = 0.05 | 997.6 | 1.064
303 K, w1 = 0.1 | 999.6 | 1.316
303 K, w1 = 0.15 | 1001.4 | 1.599
303 K, w1 = 0.2 | 1003.7 | 2.037
303 K, w1 = 0.25 | 1007.5 | 2.603
303 K, w1 = 0.3 | 1009.6 | 3.429
308 K, w1 = 0.05 | 996 | 0.959
308 K, w1 = 0.1 | 997.4 | 1.216
308 K, w1 = 0.15 | 998.9 | 1.489
308 K, w1 = 0.2 | 1001.7 | 1.869
308 K, w1 = 0.25 | 1003.1 | 2.382
308 K, w1 = 0.3 | 1006.4 | 3.069
313 K, w1 = 0.05 | 994.3 | 0.828
313 K, w1 = 0.1 | 996.5 | 1.015
313 K, w1 = 0.15 | 997.9 | 1.253
313 K, w1 = 0.2 | 999.3 | 1.511
313 K, w1 = 0.25 | 999.9 | 1.938
313 K, w1 = 0.3 | 1001.8 | 2.468
318 K, w1 = 0.05 | 992.4 | 0.776
318 K, w1 = 0.1 | 994.2 | 0.965
318 K, w1 = 0.15 | 995.5 | 1.156
318 K, w1 = 0.2 | 996.7 | 1.429
318 K, w1 = 0.25 | 998.8 | 1.795
318 K, w1 = 0.3 | 1000.2 | 2.229
323 K, w1 = 0.05 | 990.3 | 0.684
323 K, w1 = 0.1 | 991.7 | 0.828
323 K, w1 = 0.15 | 993.5 | 0.995
323 K, w1 = 0.2 | 994.7 | 1.193
323 K, w1 = 0.25 | 996.1 | 1.523
323 K, w1 = 0.3 | 997.3 | 1.891
328 K, w1 = 0.05 | 987.7 | 0.651
328 K, w1 = 0.1 | 988.7 | 0.778
328 K, w1 = 0.15 | 990.6 | 0.975
328 K, w1 = 0.2 | 991.9 | 1.173
328 K, w1 = 0.25 | 993 | 1.39
328 K, w1 = 0.3 | 994.3 | 1.769
333 K, w1 = 0.05 | 983.5 | 0.585
333 K, w1 = 0.1 | 985.9 | 0.695
333 K, w1 = 0.15 | 987.9 | 0.837
333 K, w1 = 0.2 | 988.7 | 1.013
333 K, w1 = 0.25 | 990.3 | 1.229
333 K, w1 = 0.3 | 991.3 | 1.536

CN(CCO)CCO [N-methyldiethanolamine]
[2]
Conditions | mass density [kg/m3] | viscosity [mPa·s]
288 K | 1044.1 | 142.02
313 K | 1027.2 | 34.73
333 K | 1012.6 | 14.66

CN(CCO)CCO [N-methyldiethanolamine] + O
[1]
Conditions | mass density, w1 = 0.1 [kg/m3] | mass density, w1 = 0.2 [kg/m3] | mass density, w1 = 0.3 [kg/m3] | mass density, w1 = 1 [kg/m3] | viscosity, w1 = 0.1 [mPa·s] | viscosity, w1 = 0.2 [mPa·s] | viscosity, w1 = 0.3 [mPa·s] | viscosity, w1 = 1 [mPa·s]
288 K | 1007.9 | 1016.7 | 1030.7 | 1044.1 | 1.703 | 2.624 | 4.399 | 142.02
313 K | 1000.4 | 1008.6 | 1019.3 | 1027.2 | 0.899 | 1.305 | 1.929 | 34.73
333 K | 990.2 | 999.5 | 1007.1 | 1012.6 | 0.63 | 0.86 | 1.218 | 14.66
